Reference: patent EP0454060B1, “3-(Mercaptoalkyl)-quinazoline-2,4(1H,3H)-diones, processes for their preparation, and pharmaceutical compositions” (priority 1990, dated 1991)

Tests used:
[1] = test system: SE-spezifischen IgM- und IgG-PBZ; assay: Plaque test after damage of the immune system by cyclophosphamide (immunorestoration); type: in vivo, CBA-Inzuchtmäuse; details: ZY 150 mg/kg day -1 + 2 mg/kg oral days -2 to +2
Description: Der Nachweis von immunrestaurativen Wirkungen erfolgte nach Schädigung des Immunsystems ebenfalls mittels • Plaque-Test zum Nachweis von SE-spezifischen IgM- und IgG-PBZ sowie durch • Rosettentest.
Aus den Werten wird deutlich, daß die Verbindungen der allgemeinen Formel I einen gut nachweisbaren Effekt auf die Effektor-T-Lymphozyten-abhängige verzögerte Uberempfindlichkeit haben. Kontaktdermatitis-Werte ab 120 (≙ 20 % Steigerung gegenüber der Kontrolle) bzw. unter 80 werden als Nachweis eines stimulatorischen bzw. suppressorischen Effektes angesehen. Antikörpertiter-Differenzen von >+1 bzw. <-1 verdeutlichen den stimulatorischen bzw. suppressorischen Effekt der Substanzen auf die humorale Immunantwort. 2. Untersuchungen zur immunstimulierenden Wirkung • 2.1 Plaque-Test zum Nachweis von SE-spezifischen IgM- und IgG-PBZ Zur Prüfung immunstimulierender Effekte wurde u. a. auch der Einfluß von Verbindungen der allgemeinen Formel I auf die humorale Immunantwort an Mäusen des Inzuchtstammes CBA und mittels Hämolyse-Plaque-Test (HPT) untersucht. Diese Technik erlaubt die quantitative und getrennte Erfassung IgM- und IgG-Antikörper produzierender Zellen (= Plaque bildende Zellen; PBZ). Die Immunisierung mit Schaferythrozyten (SE) erfolgte am Tag 0, die Substanzapplikation (Tagesdosis 1.10^-5 mol/kg Körpermasse; peroral) an den Tagen -1 bis +3 (zur Erfassung der IgM-PBZ) bzw. an den Tagen +1 bis +5 (zur Erfassung der IgG-PBZ). • 2.2 Ergebnisse: Durch tägliche und über 5 Tage gehende Gabe von 2,0 mg der Verbindung gemäß Beispiel 1 pro kg Körpermasse konnte die Zahl der IgM-PBZ auf einen Durchschnittswert von 352 % im Vergleich zur Kontrolle (100 %) gesteigert werden. Die gleiche Form der Behandlung führte zu einer Erhöhung der IgG-PBZ auf 497 % (Kontrolle: 100 %). In beiden Fällen erwies sich die Differenz zur Kontrolle im t-Test mit p < 0,001 als signifikant. Es wird deutlich, daß eine über 5 Tage gehende tägliche Behandlung mit der Verbindung gemäß Beispiel 1 bei der CBA-Maus eine hochsignifikante Steigerung SE-spezifischer IgM- und IgG-PBZ hervorruft. • 2.3 Rosettentest (SE-spezifische Rosetten) Nach der BURNET'schen Theorie tragen die Lymphozyten auf ihrer Oberfläche Immunglobulin-Rezeptoren, die gegen ein bestimmtes Antigen gerichtet und durch eine Reaktion mit dem spezifischen Antigen nachweisbar sind. Die Bestimmung der Anzahl an rosettenbildenden Zellen (RBZ) kann als Maß für die Stärke einer anlaufenden Immunreaktion dienen und folgend auch Effekte im Sinne einer Suppression oder Stimulierung zellproliferativer Prozesse wiedergeben. Drei Tage nach der intravenösen Immunisierung mit 2·10^5 Schaferythrozyten (SE) in 0,2 ml physiologischer Kochsalzlösung wurden die Versuchstiere durch Überstrecken getötet, die Milz entnommen und unter Zugabe von Parker-Medium (pH 7,4) durch Müller-Gaze gerieben. Die Arbeiten zur Gewinnung der Zellsuspension wurden im Eiswasserbad (ca 0 bis 4 °C) durchgeführt. In einer Zählkammer nach Neubauer erfolgte die Bestimmung der Zelldichte, und anschließend wurde die für alle Versuchsansätze konstante Zellzahl von 1·10^7 kernhaltigen Zellen (KHZ)/ml Medium eingestellt. 0,9 ml der Milzzellsuspension (1·10^7 KHZ/ml) wurden dann mit 0,1 ml einer 5 %igen gewaschenen Schaferythrozytensuspension versetzt und 24 Stunden bei 4 °C inkubiert. […] 3. Untersuchungen zu immunrestaurativen Effekten 3.1 Der Nachweis der immunrestaurativen Wirksamkeit von Verbindungen der allgemeinen Formel I wurde u. a. dadurch geführt,daß das Immunsystem der Versuchstiere (CBA-Inzuchtmäuse) durch Chemotherapie (Zyklophosphamid, Carageenan, Iloprost) bzw. Bestrahlung geschädigt wurde. Die Prüfung erfolgte u. a. mittels folgender oben erläuterter Techniken: • Plaque-Test zum Nachweis von SE-spezifischen IgM- und IgG-PBZ, • Rosettentest. […]

[2] = test system: SE-spezifischen IgM- und IgG-PBZ; assay: Haemolysis plaque test (immunostimulation); type: in vivo, Maus (Inzuchtstamm CBA); details: 2,0 mg/kg daily over 5 days, peroral, p < 0,001
Description: (§1) Der Nachweis immunstimulierender Effekte wurde weiterhin an der Maus (Inzuchtstamm CBA) und u. a. mit Hilfe folgender Nachweismethoden geführt: • Plaque-Test zum Nachweis von SE-spezifischen IgM- und IgG-PBZ, • Rosettentest.
Aus den Werten wird deutlich, daß die Verbindungen der allgemeinen Formel I einen gut nachweisbaren Effekt auf die Effektor-T-Lymphozyten-abhängige verzögerte Uberempfindlichkeit haben. Kontaktdermatitis-Werte ab 120 (≙ 20 % Steigerung gegenüber der Kontrolle) bzw. unter 80 werden als Nachweis eines stimulatorischen bzw. suppressorischen Effektes angesehen. Antikörpertiter-Differenzen von >+1 bzw. <-1 verdeutlichen den stimulatorischen bzw. suppressorischen Effekt der Substanzen auf die humorale Immunantwort. 2. Untersuchungen zur immunstimulierenden Wirkung • 2.1 Plaque-Test zum Nachweis von SE-spezifischen IgM- und IgG-PBZ Zur Prüfung immunstimulierender Effekte wurde u. a. auch der Einfluß von Verbindungen der allgemeinen Formel I auf die humorale Immunantwort an Mäusen des Inzuchtstammes CBA und mittels Hämolyse-Plaque-Test (HPT) untersucht. Diese Technik erlaubt die quantitative und getrennte Erfassung IgM- und IgG-Antikörper produzierender Zellen (= Plaque bildende Zellen; PBZ). […]

[3] = test system: Vesicular-stomatitis Indiana; assay: Plaque reduction test on primary HEZ; type: cell-based
[4] = test system: SE-spezifischer rosettenbildender Zellen; assay: Rosette test (SE-specific rosettes); type: in vivo, Maus (Inzuchtstamm CBA); details: oral administration
Description: as §1
Aus den Werten wird deutlich, daß die Verbindungen der allgemeinen Formel I einen gut nachweisbaren Effekt auf die Effektor-T-Lymphozyten-abhängige verzögerte Uberempfindlichkeit haben. Kontaktdermatitis-Werte ab 120 (≙ 20 % Steigerung gegenüber der Kontrolle) bzw. unter 80 werden als Nachweis eines stimulatorischen bzw. suppressorischen Effektes angesehen. Antikörpertiter-Differenzen von >+1 bzw. <-1 verdeutlichen den stimulatorischen bzw. suppressorischen Effekt der Substanzen auf die humorale Immunantwort. 2. Untersuchungen zur immunstimulierenden Wirkung • 2.1 Plaque-Test zum Nachweis von SE-spezifischen IgM- und IgG-PBZ Zur Prüfung immunstimulierender Effekte wurde u. a. auch der Einfluß von Verbindungen der allgemeinen Formel I auf die humorale Immunantwort an Mäusen des Inzuchtstammes CBA und mittels Hämolyse-Plaque-Test (HPT) untersucht. Diese Technik erlaubt die quantitative und getrennte Erfassung IgM- und IgG-Antikörper produzierender Zellen (= Plaque bildende Zellen; PBZ). Die Immunisierung mit Schaferythrozyten (SE) erfolgte am Tag 0, die Substanzapplikation (Tagesdosis 1.10^-5 mol/kg Körpermasse; peroral) an den Tagen -1 bis +3 (zur Erfassung der IgM-PBZ) bzw. an den Tagen +1 bis +5 (zur Erfassung der IgG-PBZ). • 2.2 Ergebnisse: Durch tägliche und über 5 Tage gehende Gabe von 2,0 mg der Verbindung gemäß Beispiel 1 pro kg Körpermasse konnte die Zahl der IgM-PBZ auf einen Durchschnittswert von 352 % im Vergleich zur Kontrolle (100 %) gesteigert werden. Die gleiche Form der Behandlung führte zu einer Erhöhung der IgG-PBZ auf 497 % (Kontrolle: 100 %). In beiden Fällen erwies sich die Differenz zur Kontrolle im t-Test mit p < 0,001 als signifikant. […]

O=c1[nH]c2ccccc2c(=O)n1CCS [Beispiel 1, 3-(2-Mercaptoethyl)-chinazolin-2,4(1H,3H)-dion]
IgM-PBZ/10^6 ([1]; test day + 3): 31,7 ± 26,6 /10^6
IgM-PBZ/10^6 ([1]; test day + 4): 59,8 ± 26,6 /10^6
IgM-PBZ/10^6 ([1]; test day + 5, p <0,05): 125,2 ± 32,7 /10^6
IgM-PBZ/10^6 ([1]; test day + 6): 47,8 ± 31,2 /10^6
IgG-PBZ/10^6 Milzzellen ([1]; test day + 6, p <0,05): 88,3 ± 24,8 /10^6 Milzzellen
IgG-PBZ/10^6 Milzzellen ([1]; test day + 7, p <0,01): 128,3 ± 28,6 /10^6 Milzzellen
IgG-PBZ/10^6 Milzzellen ([1]; test day + 8): 58,3 ± 43,6 /10^6 Milzzellen
IgG-PBZ (Kontrolle: 100 %) ([2]; days +1 to +5): 497%
Zahl der IgM-PBZ im Vergleich zur Kontrolle (100 %) ([2]; days -1 to +3, average value): 352%
Plaquereduktion in % zur Viruskontrolle auf primären HEZ ([3]; 125 µmol/l, mean of two experiments): 15%
Plaquereduktion in % zur Viruskontrolle auf primären HEZ ([3]; 250 µmol/l, footnote x = keine signifikante Wirkung): 45 ^x %
Plaquereduktion in % zur Viruskontrolle auf primären HEZ ([3]; 62,5 µmol/l, mean of two experiments, 62.5 µM): 0%

COc1cc2[nH]c(=O)n(CCCS)c(=O)c2cc1OC [Beispiel 2, 3-(3-Mercaptoprop-1-yl)-6,7-dimethoxychinazolin-2,4(1H,3H)-dion]
SE-spezifischer rosettenbildender Zellen [4]: signifikante Förderung
